In PMC3375280 (PLoS ONE, 2012):
Numbering of substitutions follows the chain as printed.

How the values were obtained:
[1] = biological target: T1, AT1 C76A/A114C/C289A mutant receptor (Rattus norvegicus, UniProt P25095, A114C/C289A/C76A); experiment: competition binding, C76A/A114C/C289A mutant; conditions: for Kd ratio relative to WT (in parentheses): C76A/A114C/C289A / WT; for Kd: C76A/A114C/C289A, COS1 membranes, read-out: Binding affinity (Kd)
T1 construct: expressed in transfected cells; host or cells: COS1 cells (membranes)
T1 sequence (P25095 1-359 C76A/A114C/C289A): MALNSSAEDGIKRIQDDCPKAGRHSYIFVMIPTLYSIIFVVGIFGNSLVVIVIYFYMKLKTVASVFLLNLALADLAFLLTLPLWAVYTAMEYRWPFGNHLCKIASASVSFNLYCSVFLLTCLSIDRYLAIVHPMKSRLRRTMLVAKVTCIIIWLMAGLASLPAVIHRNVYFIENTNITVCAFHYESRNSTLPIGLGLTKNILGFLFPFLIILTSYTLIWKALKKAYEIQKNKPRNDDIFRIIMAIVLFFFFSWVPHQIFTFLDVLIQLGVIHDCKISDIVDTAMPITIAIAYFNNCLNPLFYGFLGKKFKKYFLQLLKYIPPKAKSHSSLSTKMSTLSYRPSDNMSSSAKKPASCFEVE
Description: (§1) The Kd and Bmax values of receptor binding were determined by ^125I-[Sar^1, Ile^8] […] Membranes expressing the WT or mutant AT1 receptors were incubated with 100 pM ^125I-[Sar^1, Ile^8] […] The binding reaction was terminated by filtering the incubation mixture through Whatman GF/C glass filters, and the residues were extensively washed further with binding buffer. The bound ligand fraction was determined from the counts per minute (cpm) remaining on the membrane. Binding kinetics values were determined as previously described.

[2] = biological target: T2, AT1 S107A mutant receptor (Rattus norvegicus, UniProt P25095, S107A); experiment: competition binding, S107A mutant; conditions: for Kd ratio relative to WT (in parentheses): S107A / WT; for Kd: S107A, COS1 membranes, read-out: Binding affinity (Kd)
T2 construct: expressed in transfected cells; host or cells: COS1
T2 sequence (P25095 1-359 S107A): T1 sequence (P25095 1-359 C76A/A114C/C289A) with A76C, S107A, C114A, A289C
Description: as §1

[3] = biological target: T3, AT1 S105A mutant receptor (Rattus norvegicus, UniProt P25095, S105A); experiment: competition binding, S105A mutant; conditions: for Kd: S105A (S105 in the source), COS1 membranes, read-out: Binding affinity (Kd); for Kd ratio relative to WT (in parentheses): S105A / WT
T3 construct: expressed in transfected cells; host or cells: COS1
T3 sequence (P25095 1-359 S105A): T1 sequence (P25095 1-359 C76A/A114C/C289A) with A76C, S105A, C114A, A289C
Description: as §1

[4] = biological target: T4, AT1 V116A mutant receptor (Rattus norvegicus, UniProt P25095, V116A); experiment: competition binding, V116A mutant; conditions: for Kd ratio relative to WT (in parentheses): V116A / WT; for Kd: V116A, COS1 membranes, read-out: Binding affinity (Kd)
T4 construct: expressed in transfected cells; host or cells: COS1
T4 sequence (P25095 1-359 V116A): T1 sequence (P25095 1-359 C76A/A114C/C289A) with A76C, C114A, V116A, A289C
Description: as §1

[5] = biological target: T5, AT1 C76A/L112C/C289A mutant receptor (Rattus norvegicus, UniProt P25095, C289A/C76A/L112C); experiment: competition binding, C76A/L112C/C289A mutant; conditions: for Kd ratio relative to WT (in parentheses): C76A/L112C/C289A / WT; for Kd: C76A/L112C/C289A, COS1 membranes, read-out: Binding affinity (Kd)
T5 construct: expressed in transfected cells; host or cells: COS1
T5 sequence (P25095 1-359 C76A/L112C/C289A): T1 sequence (P25095 1-359 C76A/A114C/C289A) with L112C, C114A
Description: as §1

[6] = biological target: T6, AT1 C76A/V108C/C289A mutant receptor (Rattus norvegicus, UniProt P25095, C289A/C76A/V108C); experiment: competition binding, C76A/V108C/C289A mutant; conditions: for Kd ratio relative to WT (in parentheses): C76A/V108C/C289A / WT; for Kd: C76A/V108C/C289A, COS1 membranes, read-out: Binding affinity (Kd)
T6 construct: expressed in transfected cells; host or cells: COS1
T6 sequence (P25095 1-359 C76A/V108C/C289A): T1 sequence (P25095 1-359 C76A/A114C/C289A) with V108C, C114A
Description: as §1

| Kd ratio relative to WT (in parentheses) [1] | Kd [1] | Kd ratio relative to WT (in parentheses) [2] | Kd [2] | Kd [3] | Kd ratio relative to WT (in parentheses) [3] | Kd ratio relative to WT (in parentheses) [4] | Kd [4] | Kd ratio relative to WT (in parentheses) [5] | Kd [5] | Kd ratio relative to WT (in parentheses) [6] | Kd [6] | Structure (SMILES) |
| --- | --- | --- | --- | --- | --- | --- | --- | --- | --- | --- | --- | --- |
| 2.7 fold | 128 ± 15 nM | 1.2 fold | 59 ± 27 nM | 37 ± 23 nM | 0.8 fold | 45 fold | 2150 ± 802 nM | 1.3 fold | 62 ± 9 nM | 8 fold | 391 ± 54 nM | CCCc1nc(C(C)(C)O)c(C(N)=O)n1Cc1ccc(-c2cc(Cc3ccc(O)cc3)ccc2-c2nnn[nH]2)cc1 [R794847] |
| 2.4 fold | 5.5 ± 2.6 nM | 1.1 fold | 2.5 ± 0.5 nM | 6.7 ± 3.8 nM | – | 3.8 fold | 8.8 ± 1.2 nM | 2.7 fold | 6.1 ± 2.1 nM | 14 fold | 32 ± 1 nM | CCCc1nc(C(C)(C)O)c(C(=O)O)n1Cc1ccc(-c2ccccc2-c2nnn[nH]2)cc1 [Olmesartan, olmesartan, reference compound] |
| 2.0 fold | 1.6 ± 0.7 nM | 1.6 fold | 1.3 ± 0.2 nM | 3.2 ± 2 nM | 4.0 fold | 3.2 fold | 2.6 ± 0.7 nM | 4.0 fold | 3.2 ± 1.3 nM | 13 fold | 10 ± 2 nM | CCCc1nc(C(C)(C)O)c(C(N)=O)n1Cc1ccc(-c2ccccc2-c2nnn[nH]2)cc1 [R239470] |
